Test results as given in article PMC10238102, “Anti-SARS-CoV-2 Activity of Adamantanes In Vitro and in Animal Models of Infection” (COVID, 2022).
Entries after “also recorded” stand apart in the source; their conditions may differ. Where two headings read alike, the source gives them in different places.

How the values were obtained:
icSARS-CoV-2-mNG [1] = assay: microbe, parasite or virus in culture; type: cell-based, SARS-CoV-2
SARS-CoV-2 WA/01 [2] = assay: SARS-CoV-2 WA/01 immunostaining assay in ACE2-A549 cells; type: cell-based; conditions: MOI 0.1, anti-spike staining, 3 DPI (Figure 2A)
ACE2-A549 cells [3] = assay: CellTiter-Glo cell viability assay in ACE2-A549 cells
icSARS-CoV-2-mNG [4] = assay: microbe, parasite or virus in culture; type: cell-based, SARS-CoV-2; conditions: Severe acute respiratory syndrome coronavirus 2, read-out: IC50 (virus titer by plaque assay)
[5] = system: Influenza A/Hong Kong/8/68 (H3N2); assay: microbe, parasite or virus in culture; type: cell-based
[6] = Cell viability (CC50) in Vero E6-TMPRSS2-T2A-ACE2 cells; type: cell-based; conditions: African green monkey, Vero E6 T/A cells, Figure 3
SARS-CoV-2 WA/01 [7] = assay: SARS-CoV-2 WA/01 antiviral assay in Vero E6 cells; type: cell-based; conditions: Severe acute respiratory syndrome coronavirus 2, Vero C1008, strain WA/01
SARS-CoV-2 WA/01 [8] = assay: Golden Syrian hamster infection model, lung virus titer by plaque assay; type: in vivo, golden Syrian hamsters; conditions: 60 mg/kg i.p. every 12 h from 24 h before infection, 4 DPI
Description: The golden Syrian hamster experiment was performed by Dr. Anthony Griffith’s team at the Boston University School of Medicine. Adult hamsters (3 males and 3 females per group) were administered with antiviral compounds i.p. starting 24 h prior to infection until completion of the study. Hamsters were infected with SARS-CoV-2 WA/01 i.n. (4 × 10^4 PFU in 100 μL). At 4 DPI, hamsters underwent euthanasia and their lungs were collected to perform plaque assays to measure virus titer in the tissues. Lung tissue from each hamster was stored at −80 °C prior to titer. Tissues were removed from −80 °C and thawed at 4 °C before being weighed and cut to a weight ≤100 mg. Each tissue sample was then homogenized using a TissueLyser II (Qiagen, Germantown, MD, USA) in a final volume of 1 mL using DMEM/2% FBS/antibiotic-antimycotic (Gibco™). Each tissue homogenate was then diluted and 200 μL of each dilution or control was added to confluent monolayers of Vero E6 cells in duplicate and incubated for 1 h at 37 °C and 5% CO2. The plates were gently rocked every 5–10 min to prevent monolayer drying. […]

SARS-CoV-2 [9] = assay: Summary of in vitro assays in human lung epithelial cells expressing ACE2; type: cell-based; conditions: Severe acute respiratory syndrome coronavirus 2, Epithelial cell, read-out: IC50 values (summary range)
SARS-CoV-2 [10] = conditions: obtained by Zhou et al.; cited from earlier work
SARS-CoV-2 protein E = system: SARS-CoV-2 protein E; design: method as in PMID 34893762; conditions: expressed in X. laevis oocytes; cited from earlier work
SARS-CoV-2 ORF10 = system: SARS-CoV-2 ORF10; design: method as in PMID 34893762; conditions: expressed in X. laevis oocytes; cited from earlier work
in vitro = conditions: human
[11] = cited from earlier work
[12] = cited from earlier work; remark: listed apart in the source
[13] = CellTiter-Glo cell viability assay in ACE2-A549 cells; conditions: human
[14] = Body weight and deaths of treated, infected BALB/c mice; conditions: 60 mg/kg i.n. every 12 h, n = 6 mice per group
ACE2-A549 cells [15] = conditions: human
[16] = Severe acute respiratory syndrome coronavirus 2
[17] = Severe acute respiratory syndrome coronavirus 2, ACE2-A549 cells

Structure (SMILES)	IC50 (icSARS-CoV-2-mNG [1])	IC50 (icSARS-CoV-2-mNG [1]; [16])	IC50 (icSARS-CoV-2-mNG [4])	IC50 (SARS-CoV-2 WA/01 [2]; [17])	IC50 [5]	CC50 at 48 h [6]	IC50 (SARS-CoV-2 WA/01 [7])	lung virus titer vs no-drug control (SARS-CoV-2 WA/01 [8])	IC50 (SARS-CoV-2 [9])	IC50 (SARS-CoV-2 [10])	channel activity of protein E (SARS-CoV-2 protein E)	channel activity of ORF10 (SARS-CoV-2 ORF10)	CC50 (in vitro)	also measured
O=c1nc(NO)ccn1[C@@H]1O[C@H](CO)[C@@H](O)[C@H]1O [EIDD-1931]	–	–	–	–	–	–	–	–	–	–	–	–	–	IC50 (icSARS-CoV-2-mNG [1]; read-out: IC50): 1.5 µM; IC50 (SARS-CoV-2 WA/01 [2]; ACE2-A549 cells, read-out: IC50): 0.36 µM; CC50 (ACE2-A549 cells [3]; Figure 1A): 130 µM; CC50 (ACE2-A549 cells [3]; Figure 2A): 100 µM
NC12CC3CC(CC(C3)C1)C2 [amantadine]	120 µM	120 µM	34.6 µM	136 µM	0.46 µM	≥ 1000 µM	413 µM	did not significantly inhibit	120 to 130 µM	116 µM	decreased channel activities	decreased channel activities	≥ 1000 µM	Cmax ([11]; read-out: Cmax plasma level, mice, single-dose i.p. injection of 60 mg/kg): 47 µM; ratio of nasal mucus to plasma concentration, compared with rimantadine ([12]; after single 200-mg doses): about two-fold higher; concentration in autopsy lung tissue relative to serum concentration ([12]; autopsy lung tissue from an infant): 14 times; Cmax ([12]; multiple dose, 258 mg extended-release tablet once daily): 4.16 µM
NC(N)=NC(=O)c1nc(Cl)c(N2CCCCCC2)nc1N [hexamethylene-amiloride]	–	–	–	–	–	–	–	–	–	–	decreased channel activities	decreased channel activities	–	–
CCC(CC)COC(=O)[C@H](C)N[P@](=O)(OC[C@H]1O[C@@](C#N)(c2ccc3c(N)ncnn23)[C@H](O)[C@@H]1O)Oc1ccccc1 [remdesivir]	–	0.08 µM	–	0.04 µM	–	≥ 10 µM	–	–	–	–	–	–	–	CC50 [13]: ≥ 3 µM
CC(N)C12CC3CC(CC(C3)C1)C2 (centres unmarked) [rimantadine]	29.8 µM	30 µM	12.6 µM	34 µM	0.05 µM	≥ 300 µM	121 µM	modestly but significantly inhibited; also recorded: mild but significant antiviral effect	30 to 40 µM	36 µM	not reported to be inhibited	–	≥ 300 µM	Cmax ([11]; mouse, in vivo, po, 40 mg/kg): 9.3 µM; Cmax ([12]; in vivo, 100 mg): 0.54 to 2.17 µM; mice found dead within 1 DPI [14]: Two
CN(C)CCOCC(=O)NC12CC3CC(CC(C3)C1)C2 [tromantadine]	97.6 µM	98 µM	88.9 µM	56 µM	94.2 µM	–	–	–	60 to 100 µM	–	–	–	312 µM	CC50 (ACE2-A549 cells [15]): 305 µM
